Patent US5545547A, “Enzymes as agricultural chemical adjuvants” (priority 1992, dated 1996)

Experiments:
Format in all cases: in vivo
Soybeans = test: Greenhouse multispecies herbicide screen with/without P. mendocina enzyme; settings: two weeks after treatment
Description: (§1) Several plant species including weeds and crops are used in these experiments.
(§2) A number of herbicides from various chemical classes were compared in a multispecies screen for percent chlorosis, necrosis and vigor reduction both with and without application of the enzyme from Pseudomonas mendocina ATCC 53552 described earlier. The herbicides were applied to various plants at the manufacturers recommended doses and at 10% and 40% of the recommended dose. Two different enzyme concentrations were used: 0.5 mg/ml (HE) and 0.05 mg/ml (LE) and applied at the rate of 40 gallons/acre. All spraying solutions were at pH 10 and contained 100 mm sodium phosphate each. Ratings were done at 6 and 12 days after the treatment. All the experiments were carried out in a greenhouse.
(§3) Chlorosis--figures represent percent of plants showing chlorosis.
(§4) Necrosis--figures represent percent of plants showing necrosis.
(§5) Vigor--figures represent percent of plants showing decreased vigor.
(§6) Phytotoxicity--figures represent the average percent of chlorosis, necrosis, and vigor for a given sample.
(§7) The method of Example 1 was used except that the enzyme was applied 2 hours prior to administering the agricultural chemical with the following results. Ratings were done two weeks after treatment

Turnip = test: as above; settings: for CHL (chlorosis) / NEC (necrosis) / PHY (phytotoxicity) / VIG (vigor) / % PHY (phytotoxicity): two weeks after treatment
Description: as §1, §2, §3, §4, §5, §6, §7

various plants = test: Greenhouse multispecies herbicide screen, statements on all tested plants
Description: as §1
as §2, with “Ratings were done at 6 and 12 days after the treatment.” left out

[1] = Example 8: BASAGRAN 10% dose, High Enzyme applied 2 hours prior
[2] = Example 8: BASAGRAN 10% dose, Low Enzyme applied 2 hours prior
[3] = Example 8: BASAGRAN 10% dose, No Enzyme

CC(C)N1C(=O)c2ccccc2NS1(=O)=O [BASAGRAN, 3-(1-methylethyl)-1H-,2,1,3-benzothiadiazin-4(3H)-one 2,2-dioxide]
CHL (chlorosis) (Soybeans; BASAGRAN 10% dose, High Enzyme): 18%
NEC (necrosis) (Soybeans; BASAGRAN 10% dose, High Enzyme): 38%
PHY (phytotoxicity) (Soybeans; BASAGRAN 10% dose, High Enzyme): 43%
VIG (vigor) (Soybeans; BASAGRAN 10% dose, High Enzyme): 73%
CHL (chlorosis) (Soybeans; BASAGRAN 10% dose, Low Enzyme): 18%
NEC (necrosis) (Soybeans; BASAGRAN 10% dose, Low Enzyme): 43%
PHY (phytotoxicity) (Soybeans; BASAGRAN 10% dose, Low Enzyme): 37%
VIG (vigor) (Soybeans; BASAGRAN 10% dose, Low Enzyme): 50%
CHL (chlorosis) (Soybeans; BASAGRAN 10% dose, No Enzyme): 5%
NEC (necrosis) (Soybeans; BASAGRAN 10% dose, No Enzyme): 5%
PHY (phytotoxicity) (Soybeans; BASAGRAN 10% dose, No Enzyme): 8%
VIG (vigor) (Soybeans; BASAGRAN 10% dose, No Enzyme): 13%
% PHY (phytotoxicity) (Soybeans; [1]): 2%
CHL (chlorosis) (Soybeans; [1]): 0%
NEC (necrosis) (Soybeans; [1]): 5%
VIG (vigor) (Soybeans; [1]): 0%
% PHY (phytotoxicity) (Soybeans; [2]): 48%
CHL (chlorosis) (Soybeans; [2]): 48%
NEC (necrosis) (Soybeans; [2]): 48%
VIG (vigor) (Soybeans; [2]): 48%
% PHY (phytotoxicity) (Soybeans; [3]): 25%
CHL (chlorosis) (Soybeans; [3]): 25%
NEC (necrosis) (Soybeans; [3]): 25%
VIG (vigor) (Soybeans; [3]): 25%
CHL (chlorosis) (Turnip; BASAGRAN 10% dose, High Enzyme): 38%
NEC (necrosis) (Turnip; BASAGRAN 10% dose, High Enzyme): 50%
PHY (phytotoxicity) (Turnip; BASAGRAN 10% dose, High Enzyme): 50%
VIG (vigor) (Turnip; BASAGRAN 10% dose, High Enzyme): 63%
CHL (chlorosis) (Turnip; BASAGRAN 10% dose, Low Enzyme): 38%
NEC (necrosis) (Turnip; BASAGRAN 10% dose, Low Enzyme): 63%
PHY (phytotoxicity) (Turnip; BASAGRAN 10% dose, Low Enzyme): 59%
VIG (vigor) (Turnip; BASAGRAN 10% dose, Low Enzyme): 75%
CHL (chlorosis) (Turnip; BASAGRAN 10% dose, No Enzyme): 25%
NEC (necrosis) (Turnip; BASAGRAN 10% dose, No Enzyme): 25%
PHY (phytotoxicity) (Turnip; BASAGRAN 10% dose, No Enzyme): 29%
VIG (vigor) (Turnip; BASAGRAN 10% dose, No Enzyme): 38%
% PHY (phytotoxicity) (Turnip; [1]): 41%
CHL (chlorosis) (Turnip; [1]): 30%
NEC (necrosis) (Turnip; [1]): 50%
VIG (vigor) (Turnip; [1]): 43%
% PHY (phytotoxicity) (Turnip; [2]): 78%
CHL (chlorosis) (Turnip; [2]): 63%
NEC (necrosis) (Turnip; [2]): 85%
VIG (vigor) (Turnip; [2]): 85%
% PHY (phytotoxicity) (Turnip; [3]): 48%
CHL (chlorosis) (Turnip; [3]): 25%
NEC (necrosis) (Turnip; [3]): 63%
VIG (vigor) (Turnip; [3]): 55%
Plants killed (various plants; BASAGRAN applied at 40% of the recommended dosage, two weeks after treatment): completely killed

CN(C)C(=O)Nc1ccc(Cl)c(Cl)c1 [KARMEX, 3-(3,4-dichlorophenyl)-1,1-dimethylurea]
CHL (chlorosis) (Soybeans; KARMEX 10% dose, High Enzyme): 0%
NEC (necrosis) (Soybeans; KARMEX 10% dose, High Enzyme): 0%
PHY (phytotoxicity) (Soybeans; KARMEX 10% dose, High Enzyme): 0%
VIG (vigor) (Soybeans; KARMEX 10% dose, High Enzyme): 0%
CHL (chlorosis) (Soybeans; KARMEX 10% dose, Low Enzyme): 0%
NEC (necrosis) (Soybeans; KARMEX 10% dose, Low Enzyme): 0%
PHY (phytotoxicity) (Soybeans; KARMEX 10% dose, Low Enzyme): 0%
VIG (vigor) (Soybeans; KARMEX 10% dose, Low Enzyme): 0%
CHL (chlorosis) (Soybeans; KARMEX 10% dose, No Enzyme): 0%
NEC (necrosis) (Soybeans; KARMEX 10% dose, No Enzyme): 0%
PHY (phytotoxicity) (Soybeans; KARMEX 10% dose, No Enzyme): 0%
VIG (vigor) (Soybeans; KARMEX 10% dose, No Enzyme): 0%
CHL (chlorosis) (Soybeans; KARMEX 40% dose, High Enzyme): 0%
NEC (necrosis) (Soybeans; KARMEX 40% dose, High Enzyme): 13%
PHY (phytotoxicity) (Soybeans; KARMEX 40% dose, High Enzyme): 8%
VIG (vigor) (Soybeans; KARMEX 40% dose, High Enzyme): 10%
CHL (chlorosis) (Soybeans; KARMEX 40% dose, Low Enzyme): 0%
NEC (necrosis) (Soybeans; KARMEX 40% dose, Low Enzyme): 15%
PHY (phytotoxicity) (Soybeans; KARMEX 40% dose, Low Enzyme): 6%
VIG (vigor) (Soybeans; KARMEX 40% dose, Low Enzyme): 5%
CHL (chlorosis) (Soybeans; KARMEX 40% dose, No Enzyme): 0%
NEC (necrosis) (Soybeans; KARMEX 40% dose, No Enzyme): 10%
PHY (phytotoxicity) (Soybeans; KARMEX 40% dose, No Enzyme): 3%
VIG (vigor) (Soybeans; KARMEX 40% dose, No Enzyme): 0%
CHL (chlorosis) (Turnip; KARMEX 10% dose, High Enzyme): 18%
NEC (necrosis) (Turnip; KARMEX 10% dose, High Enzyme): 15%
PHY (phytotoxicity) (Turnip; KARMEX 10% dose, High Enzyme): 11%
VIG (vigor) (Turnip; KARMEX 10% dose, High Enzyme): 0%
CHL (chlorosis) (Turnip; KARMEX 10% dose, Low Enzyme): 18%
NEC (necrosis) (Turnip; KARMEX 10% dose, Low Enzyme): 15%
PHY (phytotoxicity) (Turnip; KARMEX 10% dose, Low Enzyme): 11%
VIG (vigor) (Turnip; KARMEX 10% dose, Low Enzyme): 5%
CHL (chlorosis) (Turnip; KARMEX 10% dose, No Enzyme): 28%
NEC (necrosis) (Turnip; KARMEX 10% dose, No Enzyme): 10%
PHY (phytotoxicity) (Turnip; KARMEX 10% dose, No Enzyme): 13%
VIG (vigor) (Turnip; KARMEX 10% dose, No Enzyme): 0%
CHL (chlorosis) (Turnip; KARMEX 40% dose, High Enzyme): 35%
NEC (necrosis) (Turnip; KARMEX 40% dose, High Enzyme): 25%
PHY (phytotoxicity) (Turnip; KARMEX 40% dose, High Enzyme): 36%
VIG (vigor) (Turnip; KARMEX 40% dose, High Enzyme): 50%
CHL (chlorosis) (Turnip; KARMEX 40% dose, Low Enzyme): 30%
NEC (necrosis) (Turnip; KARMEX 40% dose, Low Enzyme): 50%
PHY (phytotoxicity) (Turnip; KARMEX 40% dose, Low Enzyme): 41%
VIG (vigor) (Turnip; KARMEX 40% dose, Low Enzyme): 43%
CHL (chlorosis) (Turnip; KARMEX 40% dose, No Enzyme): 25%
NEC (necrosis) (Turnip; KARMEX 40% dose, No Enzyme): 38%
PHY (phytotoxicity) (Turnip; KARMEX 40% dose, No Enzyme): 33%
VIG (vigor) (Turnip; KARMEX 40% dose, No Enzyme): 37%
Phytotoxicity with enzyme (Turnip; KARMEX at 40% of the recommended dosage, with enzyme, sprayed on turnips): increased phytotoxicity
Phytotoxicity (various plants; KARMEX under the test conditions): low
